Laboratory results taken from ChEMBL document CHEMBL4364336, “Synthesis and exploration of 2-morpholino-4-phenylthiazol-5-yl acrylamide derivatives for their effects against carbonic anhydrase I, II, IX and XII isoforms as a non-sulfonamide class of inhibitors” (Bioorg Med Chem, 2019).

How the values were obtained:
Carbonic anhydrase 2 = Carbonic anhydrase 2 (Homo sapiens, UniProt P00918); experiment: Inhibition of recombinant human carbonic anhydrase2 preincubated for 10 mins followed by CO2 solution addition by phenol red dye based stopped flow CO2 hydration assay
Carbonic anhydrase 12 = Carbonic anhydrase 12 (Homo sapiens, UniProt O43570); experiment: Inhibition of recombinant human carbonic anhydrase12 preincubated for 10 mins followed by CO2 solution addition by phenol red dye based stopped flow CO2 hydration assay
Carbonic anhydrase 1 = Carbonic anhydrase 1 (Homo sapiens, UniProt P00915); experiment: Inhibition of recombinant human carbonic anhydrase1 preincubated for 10 mins followed by CO2 solution addition by phenol red dye based stopped flow CO2 hydration assay
Carbonic anhydrase 9 = Carbonic anhydrase 9 (Homo sapiens, UniProt Q16790); experiment: Inhibition of recombinant human carbonic anhydrase9 preincubated for 10 mins followed by CO2 solution addition by phenol red dye based stopped flow CO2 hydration assay

Carbonic anhydrase 12, sequence (O43570 whole entry): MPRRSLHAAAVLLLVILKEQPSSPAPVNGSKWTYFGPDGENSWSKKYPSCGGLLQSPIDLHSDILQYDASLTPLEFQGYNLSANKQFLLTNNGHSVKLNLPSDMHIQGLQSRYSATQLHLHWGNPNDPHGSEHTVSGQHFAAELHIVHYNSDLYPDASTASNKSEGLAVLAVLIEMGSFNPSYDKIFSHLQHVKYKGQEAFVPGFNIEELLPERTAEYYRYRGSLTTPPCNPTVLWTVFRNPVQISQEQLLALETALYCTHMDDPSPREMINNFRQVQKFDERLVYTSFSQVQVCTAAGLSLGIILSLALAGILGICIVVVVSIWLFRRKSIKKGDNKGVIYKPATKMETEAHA
Carbonic anhydrase 1, sequence (P00915 whole entry): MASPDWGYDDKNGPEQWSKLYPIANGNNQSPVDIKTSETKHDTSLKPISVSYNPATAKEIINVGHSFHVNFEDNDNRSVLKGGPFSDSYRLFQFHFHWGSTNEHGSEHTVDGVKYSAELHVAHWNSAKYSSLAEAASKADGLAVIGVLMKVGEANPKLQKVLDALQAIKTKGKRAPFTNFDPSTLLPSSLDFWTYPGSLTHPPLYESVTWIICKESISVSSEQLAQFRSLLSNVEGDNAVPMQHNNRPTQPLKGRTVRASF

SMILES	Ki (Carbonic anhydrase 2)	Ki (Carbonic anhydrase 12)	Ki (Carbonic anhydrase 1)	Ki (Carbonic anhydrase 9)
Nc1ccccc1NC(=O)/C=C/c1sc(N2CCOCC2)nc1-c1ccc([N+](=O)[O-])cc1	77.7 µM	> 100 µM	> 100 µM	96.7 µM
O=C(/C=C/c1sc(N2CCOCC2)nc1-c1ccc(Cl)cc1)Nc1ccc(Br)cc1	67.8 µM	> 100 µM	> 100 µM	96.5 µM
COc1ccc(NC(=O)/C=C/c2sc(N3CCOCC3)nc2-c2ccccc2)cc1OC	> 100 µM	> 100 µM	> 100 µM	> 100 µM
COc1ccc(NC(=O)/C=C/c2sc(N3CCOCC3)nc2-c2ccccc2)cc1	> 100 µM	> 100 µM	> 100 µM	> 100 µM
COc1ccc(NC(=O)/C=C/c2sc(N3CCOCC3)nc2-c2ccc(Cl)cc2)cc1OC	> 100 µM	> 100 µM	> 100 µM	> 100 µM
COc1ccc(NC(=O)/C=C/c2sc(N3CCOCC3)nc2-c2ccc([N+](=O)[O-])cc2)cc1OC	> 100 µM	> 100 µM	> 100 µM	> 100 µM
COc1ccc(NC(=O)/C=C/c2sc(N3CCOCC3)nc2-c2ccc(Cl)cc2)cc1	50.4 µM	7.5 µM	> 100 µM	94.9 µM
O=C(/C=C/c1sc(N2CCOCC2)nc1-c1ccccc1)Nc1ccc(Br)cc1	> 100 µM	> 100 µM	> 100 µM	> 100 µM
COc1ccc(-c2nc(N3CCOCC3)sc2/C=C/C(=O)Nc2cc(OC)c(OC)c(OC)c2)cc1	> 100 µM	> 100 µM	> 100 µM	> 100 µM
Nc1ccccc1NC(=O)/C=C/c1sc(N2CCOCC2)nc1-c1ccccc1	> 100 µM	> 100 µM	> 100 µM	> 100 µM
O=C(/C=C/c1sc(N2CCOCC2)nc1-c1ccc([N+](=O)[O-])cc1)Nc1ccc(Br)cc1	9.3 µM	8.8 µM	> 100 µM	54.7 µM
COc1cc(NC(=O)/C=C/c2sc(N3CCOCC3)nc2-c2ccccc2)cc(OC)c1OC	> 100 µM	> 100 µM	> 100 µM	> 100 µM
COc1cc(NC(=O)/C=C/c2sc(N3CCOCC3)nc2-c2ccc(Cl)cc2)cc(OC)c1OC	> 100 µM	> 100 µM	> 100 µM	> 100 µM
COc1ccc(-c2nc(N3CCOCC3)sc2/C=C/C(=O)Nc2ccc(OC)c(OC)c2)cc1	> 100 µM	> 100 µM	> 100 µM	> 100 µM
COc1ccc(-c2nc(N3CCOCC3)sc2/C=C/C(=O)Nc2ccc(Br)cc2)cc1	> 100 µM	> 100 µM	> 100 µM	> 100 µM
COc1ccc(NC(=O)/C=C/c2sc(N3CCOCC3)nc2-c2ccc([N+](=O)[O-])cc2)cc1	39.2 µM	4.6 µM	> 100 µM	54.7 µM
Nc1ccccc1NC(=O)/C=C/c1sc(N2CCOCC2)nc1-c1ccc(Cl)cc1	> 100 µM	> 100 µM	> 100 µM	> 100 µM
COc1ccc(-c2nc(N3CCOCC3)sc2/C=C/C(=O)Nc2ccccc2N)cc1	> 100 µM	> 100 µM	> 100 µM	> 100 µM
COc1ccc(NC(=O)/C=C/c2sc(N3CCOCC3)nc2-c2ccc(OC)cc2)cc1	> 100 µM	> 100 µM	> 100 µM	> 100 µM
